pKi: −log10 of the molar value.
Biological target: T1, H3R membranes (H3R8-expressing HEK293 cell line) (Homo sapiens, UniProt Q9Y5N1)
T1 construct: expressed in transfected cells; membranes
Assay: [35S] GTP gamma [S] binding assay
Type: biochemical
Conditions: agonist R(-)alpha methylhistamine
Method: Membranes isolated as described in (Preparation of Histamine Receptor Subtype Membranes) are used in a [35S]GTPχS functional assay. Binding of [35S]GTPχS to membranes indicates agonist activity. Compounds of the invention of Formula I or Formula II are tested for their ability to inhibit binding in the presence of agonists. Alternately, the same transfected cell lines are used for a cAMP assay wherein H3R agonists inhibit forskolin-activated synthesis of cAMP. Compounds of Formula I or Formula II are tested for their ability to permit forskolin-stimulated cAMP synthesis in the presence of agonist.
cDNA for the human histamine 3 receptor is cloned and expressed as described in (A. Preparation H1R membranes), above. Transfected cells are selected using G418 ([…]), grown, and tested for histamine binding by the SPA described above. For total binding, cells are assayed in a SPA reaction described above containing 50 mM Tris-HCL (assay buffer), pH 7.6, 1 mg wheat germ agglutinin SPA beads (Amersham Pharmacia Biotech, #RPNQ0001), and 1 nM (3H)-n-alpha-methylhistamine (NEN, NET1027) (total volume per well=200 μl). Thioperimide is added to determine non-specific binding. […]
Antagonist activity of selected compounds is tested for inhibition of [35S] […] Plates are counted in Wallac Trilux 1450 Microbeta scintillation counter for 1 minute. […]

T1 sequence (Q9Y5N1 whole entry): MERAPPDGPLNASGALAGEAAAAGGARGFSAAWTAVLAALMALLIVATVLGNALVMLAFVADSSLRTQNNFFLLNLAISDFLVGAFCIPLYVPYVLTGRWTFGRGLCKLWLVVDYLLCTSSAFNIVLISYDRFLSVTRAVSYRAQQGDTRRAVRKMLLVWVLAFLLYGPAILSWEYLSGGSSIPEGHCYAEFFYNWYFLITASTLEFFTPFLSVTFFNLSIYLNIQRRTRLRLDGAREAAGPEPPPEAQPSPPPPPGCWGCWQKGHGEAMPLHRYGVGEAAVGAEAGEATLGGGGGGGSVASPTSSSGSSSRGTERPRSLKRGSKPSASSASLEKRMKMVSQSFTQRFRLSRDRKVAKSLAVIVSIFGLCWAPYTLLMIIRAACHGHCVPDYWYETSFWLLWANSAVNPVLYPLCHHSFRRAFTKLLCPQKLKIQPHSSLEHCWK

Row | pKi | Structure (SMILES)
1 | 7.33 | O=C(c1ccc(C2CCCCC2)cc1)N1CCC[C@H]1CN1CCCC1
2 | 7.92 | O=C(c1ccc(S(=O)(=O)c2ccccc2)cc1)N1CCC[C@H]1CN1CCCC1

Source: US8178528B2, “Histamine H3 receptor agents, preparation and therapeutic uses” (Eli Lilly and Company, priority 2005, dated 2012)
